Legend:
Type in all cases: in vivo
saw tooth grain beetles = assay: Repellency of test compounds on grain beetles, treated corn kernels; conditions: 5% in isopropyl alcohol, 3 week period
Experimental: Ten replicates of 30 kernels of corn are immersed into the test compound and allowed to dry for 24 hours. The kernels are then transferred to a test container, and 10 saw tooth grain beetles are released. Test containers are secured and left for a 3 week period. At the end of this time, the […] grains are examined for feeding damage. […] Ten additional replicates treated with isopropyl alcohol are prepared to serve as controls.

granary weevils = assay: Granary weevil test on treated wheat kernels; conditions: 5% in isopropyl alcohol, 3 week period
Experimental: Ten replicates of 30 kernels of wheat were immersed into the test compound and allowed to dry for 24 hours. The grains were then transferred to a test container, and 10 granary weevils were released. Test containers were secured and left for a 3 week period. At the end of this time, the wheat grains were examined for developing larvae and damage by larvae. […] Ten additional replicates treated with isopropyl alcohol were prepared to serve as controls.

Codling Moth larvae = assay: Repellency as feeding deterrence and mortality in Codling Moth larvae on treated media
Experimental: Another test was designed to measure the repellency as feeding deterrence in Codling Moth larvae. The treatment was applied to the surface of a proprietary laboratory media in a tray with wells for each compound. The media was allowed to dry for 30-60 minutes so that larvae were not exposed to it as a liquid. One first instar codling moth larva was then placed on the treated media. The cover film was placed on the tray to prevent escapes. Ten additional replicates treated with a 57% ethanol solution were prepared to serve as controls. […] After the 24 hour reading, the larvae were extracted from the media to record any mortality.
Mortality observations were also made for the above protocol. The control was the 57% ethanol:43% water solution.

Plodia interpunctella = assay: Feeding repellent assay for Indian meal moth larva on treated rice; conditions: 10% compound in a 5% Ethanol:95% water solution, third instar larvae, 1 week
Experimental: (§1) Feeding Repellent Assay for Indian Meal Moth Larva One gram of rice is weighed and treated with 2% by weight of each test chemical or ethanol as a control for each treatment and replicate. The grains are allowed to dry and then weighed again. Treated or control rice grains are placed in a petri dish. Third instar larvae are starved for 8 h and gently introduced into the center of each compartment. 20 larva are screened per treatment, and each experiment is repeated three times. The weight of rice grains is measured again after 1 week. The selective antifeeding rate (%) formula is [(C−T)/(C+T)]×100, and the non-selective antifeeding rate (%) formula is [(C−T)/C)]×100, where C and T are the areas consumed by the control and treated leaf disks, respectively.

sharpshooters = assay: Leafhopper repellency on citrus choice assays; conditions: 3% compound; citrus seedlings; 100 sharpshooters per cage; control 50/50
Excerpt: (§2) Leafhopper Repellency on Citrus Choice Assays Citrus seedlings are sprayed with either a 3% solution of repellent chemical in a 5%:95% ETOH:Water or only 5%:95% ETOH:Water as a control. Two seedlings are placed in a screen cage, either a treatment vs control tree or a control vs control tree. 100 sharpshooters are released into each cage. The number of sharpshooters choosing each leaf is counted for both choice tests. The number of sharpshooters choosing each treatment is compared to the control to determine if there is a repellent effect.

[1] = test system: Euschistus heros-Neotropical Brown Stink Bugs; assay: Stink bug feeding damage on soybean pods; conditions: 3% compound, soybean plants at R6 stage, 48 hours
Experimental: To compare the feeding/resting preference of stink bug adults for different plant parts, 10 pots with soybean plants at the R6 (pod-filling) stage of development are used. 5 pots of soybeans are sprayed with 3% of treatment in a 2% Triton X:water solution and 5 pots of soybean are treated with 2% Triton X:water solution as controls. Thirty stink bugs are placed individually in each cage and allowed to feed for 48 hours. Insects are removed and plant parts are collected for visual analysis of damage. Feeding damage on the pods is counted for both treatments. The selective antifeeding rate (%) formula is [(C−T)/(C+T)]×100, and the non-selective antifeeding rate (%) formula is [(C−T)/C)]×100, where C and T are the numbers of feeding damages on the control and treated plant pods, respectively.

Tineola spp. = assay: Clothes moth feeding damage on silk fabric, choice test; conditions: 3% compound; silk disks; late instar larvae; 24 hours; control 50/50
Experimental: For feeding assays, 3% alcohol solutions of the tested compounds are prepared. Disks (2.0 cm in diameter) of undyed silk fabric are dipped in the test solutions or alcohol alone as a control. After the complete evaporation of the solvent, the disks are presented in a choice test to 10 late instar Tineola spp. larvae. All dishes are placed in an incubator in the dark. Four replicates are used for each chemical. After 24 hours, the number of individuals choosing to feed on each disk are counted.

psyllids = assay: Psyllid repellency on potato choice assays; conditions: 3% compound; potato plants; 100 psyllids per cage; control 50/50
Excerpt: Psyllid Repellency on Potato Choice Assays
as §2, with “Potato plants” for “Leafhopper Repellency on Citrus Choice Assays Citrus seedlings”, “plants” for “seedlings”, “tree,” for “tree.”, “psyllids” for “sharpshooters”

Sitostroga cerealella = assay: Feeding repellent assay for Angoumois larva on treated rice; conditions: 10% compound in a 5% Ethanol:95% water solution, third instar larvae, 1 week
Experimental: Feeding Repellent Assay for Angoumois Larva
as §1, with “One” for “Feeding Repellent Assay for Indian Meal Moth Larva One”

Dermestid spp. = assay: Dermestid beetle feeding damage on silk fabric; conditions: 3% compound; undyed silk disks; late instar larvae; 1 week
Experimental: Dermestid Beetle Feeding Damage on Silk Fabric
For feeding assays, 3% alcohol solutions of the tested compounds are prepared. Disks (4.0 cm in diameter) of undyed silk fabric are dipped in the test solutions or alcohol alone as a control. After the complete evaporation of the solvent, the disks are offered to 10 late instar larvae. All dishes are placed in an incubator. Four replicates are used for each chemical. After 1 week, the remaining uneaten area of each silk disk is measured using a scanner and software. The selective antifeeding rate (%) formula is [(C−T)/(C+T)]×100, and the non-selective antifeeding rate (%) formula is [(C−T)/C)]×100, where C and T are the areas consumed by the control and treated silk disks, respectively.

Aphis gossypii = assay: Melon aphid repellency on leaf choice assays; conditions: 3% compound in a Triton X:Water solution; n=100; control 50/50
Excerpt: Melon Aphid Repellency on Leaf Choice Assays Aphis gossypii are maintained on squash plants. Individual aphids (n=100) are given the choice between leaves with and without repellent treatments. A separate group of aphids are given a choice between untreated vs. untreated leaves as a control. The number of aphids choosing each leaf is counted both choice tests. The number of aphids choosing each treatment is compared to the control to determine the repellent effect.

[2] = test system: Leptinotarsa decemlineata-Colorado Potatoe Beetles; assay: Choice feeding assay on potato leaf disks; conditions: 3% compound, larvae, 24 h
Experimental: For choice feeding assays, 3% alcohol solutions of the tested compounds are prepared. Disks (4.0 cm in diameter) are cut from potato leaves and are dipped in the test solutions or alcohol alone as a control. After the complete evaporation of the solvent, the disks are offered to 10 larvae. Control and treated disks are placed at alternate corners in Petri dishes (150 by 20 mm) lined with moistened filter paper (choice test). All dishes are placed in an incubator. Four replicates and 40 larva are used for each chemical. In each replicate, the insects are allowed to feed ad libitum for 24 h at 24 C under a 16:8 (L:D) photoperiod. After 24 h, the remaining uneaten area of each potato leaf disk is measured using a scanner and software. The selective antifeeding rate (%) formula is [(C−T)/(C+T)]×100, and the non-selective antifeeding rate (%) formula is [(C−T)/C)]×100, where C and T are the areas consumed by the control and treated leaf disks, respectively.

Popillia japonica = assay: Japanese beetle feeding damage on basil; conditions: 3% compound; basil leaf disks; adult beetle; 24 h
Experimental: Japanese Beetle Feeding Damage on Basil For choice feeding assays, 3% alcohol solutions of the tested compounds are prepared. Disks (4.0 cm in diameter) are cut from basil leaves and are dipped in the test solutions or alcohol alone as a control. After the complete evaporation of the solvent, the disks are offered to 1 adult beetle. All dishes are placed in an incubator. Four replicates are used for each chemical. After 24 h, the remaining uneaten area of each basil leaf disk is measured using a scanner and software. The selective antifeeding rate (%) formula is [(C−T)/(C+T)]×100, and the non-selective antifeeding rate (%) formula is [(C−T)/C)]×100, where C and T are the areas consumed by the control and treated leaf disks, respectively.

[3] = test system: brown marmorated stink bugs (BMSB); assay: Repellency as feeding deterrence in brown marmorated stink bugs, treated filter paper with green bean; conditions: compound at 3.5% in a 57% Ethanol:43% water solution; control 38%
Experimental: A test was designed to measure the repellency as feeding deterrence in brown marmorated stink bugs (BMSB). Five replicates of 5 BMSBs were introduced into test arenas, containing one 60 mm×15 mm Petri dish with treated filter papers in which a food source (green bean) was attached, at the start of the test. The small Petri dishes containing the treated filter paper and food source were covered with a fitted Petri dish lid in between observation times, and were removed 5 minutes before each observation time to prevent stink bugs from feeding until sated. The distribution of the BMSBs was observed and documented hourly for 5 hours.

Compound | Increased Repellency vs. Control Repellency (saw tooth grain beetles) | Increased Mortality over Control Mortality (granary weevils) | Increased Repellency vs. Control Repellency (granary weevils) | Repellency at 24 hours (Codling Moth larvae; compound at 3.5% in a 57% Ethanol:43% water solution, first instar larva, control 8%) | Increased Mortality over Control Mortality at 24 hours (Codling Moth larvae; in vivo) | % Antifeedent Activity (Plodia interpunctella) | Number of Psyllids Choosing each Treatment: Treated (sharpshooters) | Number of Psyllids Choosing each Treatment: Untreated (sharpshooters) | % Antifeedent Activity [1] | Individuals choosing to feed on each disk: Treated (Tineola spp.) | Individuals choosing to feed on each disk: Untreated (Tineola spp.) | Number of Psyllids Choosing each Treatment: Treated (psyllids) | Number of Psyllids Choosing each Treatment: Untreated (psyllids) | % Antifeedent Activity (Sitostroga cerealella) | % Repellency (Dermestid spp.) | Number of Aphids Choosing each Treatment: Treated (Aphis gossypii) | Number of Aphids Choosing each Treatment: Untreated (Aphis gossypii) | % Repellency [2] | % Repellency (Popillia japonica) | Repellency averaged over 5 hours [3]
CC1=CC(O)CC(CC(C)C)C1 (centres unmarked) [3-Methyl-5-Isobutyl-2-Cyclohexenol] | 85% | 93% | 86% | – | – | – | – | – | – | – | – | – | – | – | – | – | – | – | – | –
CCCC1CC(=O)C=C(C)C1 (centres unmarked) [3-Methyl-5-Propyl-2-Cyclohexenone] | 60% | 57% | 66% | 21% | 1% | – | – | – | – | – | – | – | – | – | – | – | – | – | – | –
CCCCCCCCCC1CCC(=O)O1 (centres unmarked) [Gamma Tridecalactone] | 40% | – | 40% | – | – | 70% | 20 | 80 | 80% | 10 | 90 | 20 | 80 | 70% | 40% | 20 | 80 | 40% | 40% | –
CCCCCC1C(=O)CCC1CC(=O)OC (centres unmarked) [Methyl Dihydrojasmonate] | – | – | – | – | – | 60% | 30 | 70 | 90% | 20 | 80 | 30 | 70 | 60% | 15% | 30 | 70 | 15% | 15% | 90%
CCCCCC1C(O)CCC1CC(=O)OC (centres unmarked) [Methyl dihydrojasmolate] | – | – | – | – | – | 60% | 30 | 70 | 90% | 20 | 80 | 30 | 70 | 60% | 15% | 30 | 70 | 15% | 15% | –

From patent publication US11224223B2, “Feeding deterrence of pests such as Hemiptera, Lepidoptera and Coleoptera” (BEDOUKIAN RESEARCH, INC., priority 2012, dated 2022)
